Assays:
Test in all cases: CYP activity inhibition in microsomes
Format in all cases: biochemical
Conditions in all cases: microsomes with NADPH; direct inhibition
CYP1A2 = molecular target: T1, CYP1A2 (Homo sapiens, UniProt P05177)
T1 sequence (P05177 2-516): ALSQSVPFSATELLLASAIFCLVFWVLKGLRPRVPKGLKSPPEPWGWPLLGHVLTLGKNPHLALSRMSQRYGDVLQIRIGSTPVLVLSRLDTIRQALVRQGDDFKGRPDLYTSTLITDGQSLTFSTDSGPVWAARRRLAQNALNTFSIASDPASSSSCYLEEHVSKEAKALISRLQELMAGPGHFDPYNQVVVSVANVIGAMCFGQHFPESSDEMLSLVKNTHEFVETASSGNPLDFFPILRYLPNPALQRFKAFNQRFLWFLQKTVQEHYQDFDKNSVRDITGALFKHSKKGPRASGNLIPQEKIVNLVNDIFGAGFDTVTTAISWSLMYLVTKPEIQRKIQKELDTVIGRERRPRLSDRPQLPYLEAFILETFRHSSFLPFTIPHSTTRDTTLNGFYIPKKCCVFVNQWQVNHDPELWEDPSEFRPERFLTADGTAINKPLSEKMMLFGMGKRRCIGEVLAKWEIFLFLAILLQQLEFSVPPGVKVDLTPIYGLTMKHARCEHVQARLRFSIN

CYP3A4 = CYP3A4 (Homo sapiens, UniProt P08684)
Chain of CYP3A4 (P08684 2-503): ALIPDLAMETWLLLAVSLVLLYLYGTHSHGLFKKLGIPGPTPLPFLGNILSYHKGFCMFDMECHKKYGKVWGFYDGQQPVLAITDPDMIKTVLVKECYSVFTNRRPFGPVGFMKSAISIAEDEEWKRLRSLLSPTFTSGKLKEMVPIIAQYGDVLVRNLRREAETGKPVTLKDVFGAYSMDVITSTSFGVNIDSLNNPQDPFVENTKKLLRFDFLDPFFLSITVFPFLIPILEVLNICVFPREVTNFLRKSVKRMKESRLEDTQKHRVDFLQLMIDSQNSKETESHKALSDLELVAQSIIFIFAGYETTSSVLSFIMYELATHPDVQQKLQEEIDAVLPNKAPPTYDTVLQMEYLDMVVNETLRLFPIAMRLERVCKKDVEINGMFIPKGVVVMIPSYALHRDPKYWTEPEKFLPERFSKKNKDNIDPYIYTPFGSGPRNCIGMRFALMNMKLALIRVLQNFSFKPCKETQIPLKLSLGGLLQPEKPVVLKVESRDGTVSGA

CYP2C9 = CYP2C9 (Homo sapiens, UniProt P11712)
Chain of CYP2C9 (P11712 whole entry): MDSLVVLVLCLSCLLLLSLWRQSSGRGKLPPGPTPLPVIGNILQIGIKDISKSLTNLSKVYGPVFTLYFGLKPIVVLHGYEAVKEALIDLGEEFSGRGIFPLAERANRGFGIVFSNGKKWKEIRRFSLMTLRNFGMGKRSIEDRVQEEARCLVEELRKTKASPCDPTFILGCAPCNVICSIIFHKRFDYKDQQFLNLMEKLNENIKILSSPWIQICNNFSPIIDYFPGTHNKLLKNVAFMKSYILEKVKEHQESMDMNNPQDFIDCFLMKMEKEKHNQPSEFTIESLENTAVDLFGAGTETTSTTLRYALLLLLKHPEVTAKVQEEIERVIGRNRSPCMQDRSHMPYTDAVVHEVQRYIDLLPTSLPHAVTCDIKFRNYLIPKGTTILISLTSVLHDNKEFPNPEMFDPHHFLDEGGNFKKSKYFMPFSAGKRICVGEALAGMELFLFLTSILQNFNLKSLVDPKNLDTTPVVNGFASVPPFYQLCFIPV

CYP2D6 = CYP2D6 (Homo sapiens, UniProt P10635)
Chain of CYP2D6 (P10635 whole entry): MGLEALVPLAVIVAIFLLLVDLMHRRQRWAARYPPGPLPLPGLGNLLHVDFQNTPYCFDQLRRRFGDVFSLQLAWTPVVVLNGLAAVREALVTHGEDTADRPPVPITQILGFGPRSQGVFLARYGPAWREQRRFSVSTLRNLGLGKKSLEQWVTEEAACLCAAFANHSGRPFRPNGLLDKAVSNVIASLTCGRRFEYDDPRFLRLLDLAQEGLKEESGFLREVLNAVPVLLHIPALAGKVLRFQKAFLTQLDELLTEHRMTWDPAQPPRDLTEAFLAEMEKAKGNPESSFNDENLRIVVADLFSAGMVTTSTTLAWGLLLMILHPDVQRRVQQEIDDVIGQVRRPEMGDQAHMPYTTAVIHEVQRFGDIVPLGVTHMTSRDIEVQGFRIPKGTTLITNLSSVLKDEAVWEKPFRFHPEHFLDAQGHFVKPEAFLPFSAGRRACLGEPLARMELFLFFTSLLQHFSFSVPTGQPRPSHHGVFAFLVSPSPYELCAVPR

CYP2C19 = CYP2C19 (Homo sapiens, UniProt P33261)
Chain of CYP2C19 (P33261 whole entry): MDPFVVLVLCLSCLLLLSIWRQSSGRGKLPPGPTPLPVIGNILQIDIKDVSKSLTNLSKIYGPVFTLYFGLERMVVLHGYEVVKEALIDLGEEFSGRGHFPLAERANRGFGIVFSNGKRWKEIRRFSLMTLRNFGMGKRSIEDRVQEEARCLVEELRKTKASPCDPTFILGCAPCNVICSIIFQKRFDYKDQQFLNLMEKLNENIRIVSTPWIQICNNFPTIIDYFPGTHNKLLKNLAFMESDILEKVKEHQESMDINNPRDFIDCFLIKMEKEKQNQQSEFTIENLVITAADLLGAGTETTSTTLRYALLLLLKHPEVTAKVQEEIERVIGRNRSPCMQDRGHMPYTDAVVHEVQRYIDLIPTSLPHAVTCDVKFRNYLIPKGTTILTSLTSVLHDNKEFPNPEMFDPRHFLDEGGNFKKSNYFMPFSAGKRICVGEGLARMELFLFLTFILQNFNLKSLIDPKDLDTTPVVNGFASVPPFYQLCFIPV

Measured: IC50

Cc1cccc(OC2CCN(Cc3cc(=O)[nH]c(=O)[nH]3)CC2)c1C [GSK2556286]
> 25 µM: all assays above
